The test concerns the target hNav1.7 (Homo sapiens, UniProt Q15858). The experiment in a line: cell-based. The format is cell-based. As to conditions: Table 12; PatchXpress, tonic block; read-out: PX hNav1.7 Tonic IC50.

Drawing on US10344060B2 (priority 2013, dated 2019), this text covers IC50 for ten compounds.

Sequence of hNav1.7 (Q15858 whole entry): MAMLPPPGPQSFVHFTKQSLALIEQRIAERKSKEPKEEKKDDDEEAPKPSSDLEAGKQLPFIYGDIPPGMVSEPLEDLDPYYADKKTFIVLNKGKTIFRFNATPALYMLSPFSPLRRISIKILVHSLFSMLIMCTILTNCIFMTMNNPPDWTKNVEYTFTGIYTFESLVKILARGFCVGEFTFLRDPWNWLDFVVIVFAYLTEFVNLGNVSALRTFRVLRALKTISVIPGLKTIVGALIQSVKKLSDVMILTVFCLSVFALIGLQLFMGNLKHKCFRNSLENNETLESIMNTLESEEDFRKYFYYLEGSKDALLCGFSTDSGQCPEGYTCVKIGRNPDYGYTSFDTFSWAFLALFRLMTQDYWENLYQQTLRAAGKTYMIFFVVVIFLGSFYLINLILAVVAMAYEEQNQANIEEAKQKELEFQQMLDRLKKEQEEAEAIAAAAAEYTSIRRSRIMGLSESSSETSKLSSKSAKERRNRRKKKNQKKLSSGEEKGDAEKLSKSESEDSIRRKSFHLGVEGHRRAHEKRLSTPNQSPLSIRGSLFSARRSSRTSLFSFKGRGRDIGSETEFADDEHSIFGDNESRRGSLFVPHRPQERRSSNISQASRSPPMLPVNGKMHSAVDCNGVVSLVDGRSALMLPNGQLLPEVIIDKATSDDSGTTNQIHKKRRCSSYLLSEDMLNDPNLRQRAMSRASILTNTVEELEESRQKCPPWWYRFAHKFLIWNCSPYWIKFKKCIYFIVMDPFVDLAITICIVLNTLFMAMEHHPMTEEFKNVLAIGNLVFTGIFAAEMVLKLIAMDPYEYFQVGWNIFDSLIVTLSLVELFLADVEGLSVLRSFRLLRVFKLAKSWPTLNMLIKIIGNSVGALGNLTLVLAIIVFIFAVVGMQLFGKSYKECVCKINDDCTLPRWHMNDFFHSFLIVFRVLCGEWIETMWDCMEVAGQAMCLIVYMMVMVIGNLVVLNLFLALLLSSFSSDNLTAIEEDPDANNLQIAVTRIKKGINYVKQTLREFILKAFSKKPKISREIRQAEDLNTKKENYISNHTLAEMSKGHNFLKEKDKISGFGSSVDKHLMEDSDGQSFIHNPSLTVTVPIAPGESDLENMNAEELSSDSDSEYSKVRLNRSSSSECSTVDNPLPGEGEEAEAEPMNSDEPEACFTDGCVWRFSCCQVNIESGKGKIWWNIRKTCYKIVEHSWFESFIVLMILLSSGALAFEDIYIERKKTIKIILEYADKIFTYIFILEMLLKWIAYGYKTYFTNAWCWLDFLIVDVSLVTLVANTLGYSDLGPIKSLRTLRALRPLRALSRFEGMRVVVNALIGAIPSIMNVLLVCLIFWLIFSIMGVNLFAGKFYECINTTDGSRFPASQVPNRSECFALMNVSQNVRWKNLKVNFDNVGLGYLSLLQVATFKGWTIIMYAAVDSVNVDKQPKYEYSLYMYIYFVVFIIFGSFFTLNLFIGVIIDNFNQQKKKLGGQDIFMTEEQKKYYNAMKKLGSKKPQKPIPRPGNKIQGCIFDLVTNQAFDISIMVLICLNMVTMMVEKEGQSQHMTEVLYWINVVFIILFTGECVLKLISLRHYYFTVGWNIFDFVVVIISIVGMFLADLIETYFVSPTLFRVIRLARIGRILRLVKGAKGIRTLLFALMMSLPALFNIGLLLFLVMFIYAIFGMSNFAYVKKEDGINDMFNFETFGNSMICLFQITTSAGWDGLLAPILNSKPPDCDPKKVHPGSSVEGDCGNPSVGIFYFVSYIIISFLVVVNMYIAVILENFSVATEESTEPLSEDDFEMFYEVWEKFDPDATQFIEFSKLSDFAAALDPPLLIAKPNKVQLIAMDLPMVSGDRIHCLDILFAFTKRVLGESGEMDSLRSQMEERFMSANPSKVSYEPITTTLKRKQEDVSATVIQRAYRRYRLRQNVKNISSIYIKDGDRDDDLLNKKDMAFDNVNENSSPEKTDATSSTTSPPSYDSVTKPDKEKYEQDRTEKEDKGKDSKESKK

A word on the IC50: it is the concentration needed to halve the response being measured. On to `C#CC[C@H](N)C(=O)N[C@@H](Cc1ccc(O)cc1)C(=O)N[C@H]1CSSC[C@@H]2NC(=O)[C@@H]3CSSC[C@@H](C(=O)N[C@@H](CCCNC(=N)N)C(=O)N[C@@H](CCCCN)C(=O)N[C@@H](CCC(=O)O)C(=O)N[C@H](C(N)=O)[C@@H](C)CC)NC(=O)[C@H](Cc4c[nH]c5ccccc45)NC(=O)[C@H](CC(C)C)NC(=O)[C@H](CCC(N)=O)NC(=O)[C@H](CSSC[C@H](NC(=O)[C@H]([C@@H](C)O)NC(=O)[C@H](Cc4c[nH]c5ccccc45)NC(=O)[C@H](CCCC)NC(=O)[C@H](Cc4c[nH]c5ccccc45)NC(=O)[C@H](CCCCN)NC(=O)[C@H](CCC(N)=O)NC1=O)C(=O)N[C@@H](CC(=O)O)C(=O)N[C@@H](CO)C(=O)N[C@@H](CCCCN)C(=O)N[C@@H](CCCNC(=N)N)C(=O)N[C@@H](C)C(=O)N3)NC(=O)[C@H](CCCNC(=N)N)NC(=O)[C@H](CC(C)C)NC(=O)CNC(=O)[C@H](CCC(=O)O)NC2=O` [compound 804], for which the IC50 was 0.0353 µM. The figure for `C#CC[C@H](N)C(=O)N[C@@H](Cc1ccc(O)cc1)C(=O)N[C@H]1CSSC[C@@H]2NC(=O)[C@@H]3CSSC[C@@H](C(=O)N[C@@H](CCCNC(=N)N)C(=O)N[C@@H](CCCCN)C(=O)N[C@@H](CCC(=O)O)C(=O)N[C@H](C(N)=O)[C@@H](C)CC)NC(=O)[C@H](Cc4c[nH]c5ccccc45)NC(=O)[C@H](CC(C)C)NC(=O)[C@H](CCCCN)NC(=O)[C@H](CSSC[C@H](NC(=O)[C@H]([C@@H](C)O)NC(=O)[C@H](Cc4c[nH]c5ccccc45)NC(=O)[C@H](CCCC)NC(=O)[C@H](Cc4c[nH]c5ccccc45)NC(=O)[C@H](CCC(N)=O)NC(=O)[C@H](CCC(N)=O)NC1=O)C(=O)N[C@@H](CC(=O)O)C(=O)N[C@@H](CO)C(=O)N[C@@H](CCCCN)C(=O)N[C@@H](CCCNC(N)=O)C(=O)N[C@@H](C)C(=O)N3)NC(=O)[C@H](CCCNC(=N)N)NC(=O)[C@H](CC(C)C)NC(=O)CNC(=O)[C@H](CCC(=O)O)NC2=O` [compound 807] is 0.0209 µM; for `C#CC[C@H](N)C(=O)N[C@@H](Cc1ccc(O)cc1)C(=O)N[C@H]1CSSC[C@@H]2NC(=O)[C@@H]3CSSC[C@@H](C(=O)N[C@@H](CCCNC(=N)N)C(=O)N[C@@H](CCCCN)C(=O)N[C@@H](CCC(=O)O)C(=O)N[C@H](C(N)=O)[C@@H](C)CC)NC(=O)[C@H](Cc4c[nH]c5ccccc45)NC(=O)[C@H](CC(C)C)NC(=O)[C@H](CCCCN)NC(=O)[C@H](CSSC[C@H](NC(=O)[C@H]([C@@H](C)O)NC(=O)[C@H](Cc4c[nH]c5ccccc45)NC(=O)[C@H](CCCC)NC(=O)[C@H](Cc4cccc5ccccc45)NC(=O)[C@H](CCCCN)NC(=O)[C@H](CCC(N)=O)NC1=O)C(=O)N[C@@H](CC(=O)O)C(=O)N[C@@H](CO)C(=O)N[C@@H](CCCCN)C(=O)N[C@@H](CCCNC(=N)N)C(=O)N[C@@H](C)C(=O)N3)NC(=O)[C@H](CCCNC(=N)N)NC(=O)[C@H](CC(C)C)NC(=O)CNC(=O)[C@H](CCC(=O)O)NC2=O` [compound 841] it is 0.0709 µM. The figure for `C#CC[C@H](N)C(=O)N[C@@H](Cc1ccc(O)cc1)C(=O)N[C@H]1CSSC[C@@H]2NC(=O)[C@@H]3CSSC[C@@H](C(=O)N[C@@H](CCCNC(=N)N)C(=O)N[C@@H](CCCCN)C(=O)N[C@@H](CCC(=O)O)C(=O)N[C@H](C(N)=O)[C@@H](C)CC)NC(=O)[C@H](Cc4c[nH]c5ccccc45)NC(=O)[C@H](CC(C)C)NC(=O)[C@H](CCCCN)NC(=O)[C@H](CSSC[C@H](NC(=O)[C@H]([C@@H](C)O)NC(=O)[C@H](Cc4c[nH]c5ccccc45)NC(=O)[C@H](CCCC)NC(=O)[C@H](Cc4ccc5ccccc5c4)NC(=O)[C@H](CCCCN)NC(=O)[C@H](CCC(N)=O)NC1=O)C(=O)N[C@@H](CC(=O)O)C(=O)N[C@@H](CO)C(=O)N[C@@H](CCCCN)C(=O)N[C@@H](CCCNC(=N)N)C(=O)N[C@@H](C)C(=O)N3)NC(=O)[C@H](CCCNC(=N)N)NC(=O)[C@H](CC(C)C)NC(=O)CNC(=O)[C@H](CCC(=O)O)NC2=O` [compound 842] is 0.0217 µM; for `C#CC[C@H](N)C(=O)N[C@@H](Cc1ccc(O)cc1)C(=O)N[C@H]1CSSC[C@@H]2NC(=O)[C@@H]3CSSC[C@@H](C(=O)N[C@@H](CCCNC(=N)N)C(=O)N[C@@H](CCCCN)C(=O)N[C@@H](CCC(=O)O)C(=O)N[C@H](C(N)=O)[C@@H](C)CC)NC(=O)[C@H](Cc4c[nH]c5ccccc45)NC(=O)[C@H](CC(C)C)NC(=O)[C@H](CCCCN)NC(=O)[C@H](CSSC[C@H](NC(=O)[C@H]([C@@H](C)O)NC(=O)[C@H](Cc4c[nH]c5ccccc45)NC(=O)[C@H](CCCC)NC(=O)[C@H](Cc4c[nH]c5ccc(Br)cc45)NC(=O)[C@H](CCCCN)NC(=O)[C@H](CCC(N)=O)NC1=O)C(=O)N[C@@H](CC(=O)O)C(=O)N[C@@H](CO)C(=O)N[C@@H](CCCCN)C(=O)N[C@@H](CCCNC(=N)N)C(=O)N[C@@H](C)C(=O)N3)NC(=O)[C@H](CCCNC(=N)N)NC(=O)[C@H](CC(C)C)NC(=O)CNC(=O)[C@H](CCC(=O)O)NC2=O` [compound 845] it is 0.0535 µM; for `C#CC[C@H](N)C(=O)N[C@@H](Cc1ccc(O)cc1)C(=O)N[C@H]1CSSC[C@@H]2NC(=O)[C@@H]3CSSC[C@@H](C(=O)N[C@@H](CCCNC(=N)N)C(=O)N[C@@H](CCCCN)C(=O)N[C@@H](CCC(=O)O)C(=O)N[C@H](C(N)=O)[C@@H](C)CC)NC(=O)[C@H](Cc4c[nH]c5ccccc45)NC(=O)[C@H](CC(C)C)NC(=O)[C@H](CCCCN)NC(=O)[C@H](CSSC[C@H](NC(=O)[C@H]([C@@H](C)O)NC(=O)[C@H](Cc4cccc5ccccc45)NC(=O)[C@H](CCCC)NC(=O)[C@H](Cc4c[nH]c5ccccc45)NC(=O)[C@H](CCCCN)NC(=O)[C@H](CCC(N)=O)NC1=O)C(=O)N[C@@H](CC(=O)O)C(=O)N[C@@H](CO)C(=O)N[C@@H](CCCCN)C(=O)N[C@@H](CCCNC(=N)N)C(=O)N[C@@H](C)C(=O)N3)NC(=O)[C@H](CCCNC(=N)N)NC(=O)[C@H](CC(C)C)NC(=O)CNC(=O)[C@H](CCC(=O)O)NC2=O` [compound 846] it is 0.825 µM.

Turning to `C#CC[C@H](N)C(=O)N[C@@H](Cc1ccc(O)cc1)C(=O)N[C@H]1CSSC[C@@H]2NC(=O)[C@@H]3CSSC[C@@H](C(=O)N[C@@H](CCCNC(=N)N)C(=O)N[C@@H](CCCCN)C(=O)N[C@@H](CCC(=O)O)C(=O)N[C@H](C(N)=O)[C@@H](C)CC)NC(=O)[C@H](Cc4c[nH]c5ccccc45)NC(=O)[C@H](CC(C)C)NC(=O)[C@H](CCCCN)NC(=O)[C@H](CSSC[C@H](NC(=O)[C@H]([C@@H](C)O)NC(=O)[C@H](Cc4ccc5ccccc5c4)NC(=O)[C@H](CCCC)NC(=O)[C@H](Cc4c[nH]c5ccccc45)NC(=O)[C@H](CCCCN)NC(=O)[C@H](CCC(N)=O)NC1=O)C(=O)N[C@@H](CC(=O)O)C(=O)N[C@@H](CO)C(=O)N[C@@H](CCCCN)C(=O)N[C@@H](CCCNC(=N)N)C(=O)N[C@@H](C)C(=O)N3)NC(=O)[C@H](CCCNC(=N)N)NC(=O)[C@H](CC(C)C)NC(=O)CNC(=O)[C@H](CCC(=O)O)NC2=O` [compound 847], the half-maximal inhibitory concentration (IC50) was determined as 0.471 µM. On to `C#CC[C@H](N)C(=O)N[C@@H](Cc1ccc(O)cc1)C(=O)N[C@H]1CSSC[C@@H]2NC(=O)[C@@H]3CSSC[C@@H](C(=O)N[C@@H](CCCNC(=N)N)C(=O)N[C@@H](CCCCN)C(=O)N[C@@H](CCC(=O)O)C(=O)N[C@H](C(N)=O)[C@@H](C)CC)NC(=O)[C@H](Cc4c[nH]c5ccccc45)NC(=O)[C@H](CC(C)C)NC(=O)[C@H](CCCCN)NC(=O)[C@H](CSSC[C@H](NC(=O)[C@H]([C@@H](C)O)NC(=O)[C@H](Cc4c[nH]c5ccc(Br)cc45)NC(=O)[C@H](CCCC)NC(=O)[C@H](Cc4c[nH]c5ccccc45)NC(=O)[C@H](CCCCN)NC(=O)[C@H](CCC(N)=O)NC1=O)C(=O)N[C@@H](CC(=O)O)C(=O)N[C@@H](CO)C(=O)N[C@@H](CCCCN)C(=O)N[C@@H](CCCNC(=N)N)C(=O)N[C@@H](C)C(=O)N3)NC(=O)[C@H](CCCNC(=N)N)NC(=O)[C@H](CC(C)C)NC(=O)CNC(=O)[C@H](CCC(=O)O)NC2=O` [compound 850], for which the IC50 was 0.54 µM. For `C#CC[C@H](N)C(=O)N[C@@H](Cc1ccc(O)cc1)C(=O)N[C@H]1CSSC[C@@H]2NC(=O)[C@@H]3CSSC[C@@H](C(=O)N[C@@H](CCCNC(=N)N)C(=O)N[C@@H](CCCCN)C(=O)N[C@@H](CCC(=O)O)C(=O)N[C@H](C(N)=O)[C@@H](C)CC)NC(=O)[C@H](Cc4cccc5ccccc45)NC(=O)[C@H](CC(C)C)NC(=O)[C@H](CCCCN)NC(=O)[C@H](CSSC[C@H](NC(=O)[C@H]([C@@H](C)O)NC(=O)[C@H](Cc4c[nH]c5ccccc45)NC(=O)[C@H](CCCC)NC(=O)[C@H](Cc4c[nH]c5ccccc45)NC(=O)[C@H](CCCCN)NC(=O)[C@H](CCC(N)=O)NC1=O)C(=O)N[C@@H](CC(=O)O)C(=O)N[C@@H](CO)C(=O)N[C@@H](CCCCN)C(=O)N[C@@H](CCCNC(=N)N)C(=O)N[C@@H](C)C(=O)N3)NC(=O)[C@H](CCCNC(=N)N)NC(=O)[C@H](CC(C)C)NC(=O)CNC(=O)[C@H](CCC(=O)O)NC2=O` [compound 851], the IC50 stood at 0.032 µM.

Take `C#CC[C@H](N)C(=O)N[C@@H](Cc1ccc(O)cc1)C(=O)N[C@H]1CSSC[C@@H]2NC(=O)[C@@H]3CSSC[C@@H](C(=O)N[C@@H](CCCNC(=N)N)C(=O)N[C@@H](CCCCN)C(=O)N[C@@H](CCC(=O)O)C(=O)N[C@H](C(N)=O)[C@@H](C)CC)NC(=O)[C@H](Cc4ccc5ccccc5c4)NC(=O)[C@H](CC(C)C)NC(=O)[C@H](CCCCN)NC(=O)[C@H](CSSC[C@H](NC(=O)[C@H]([C@@H](C)O)NC(=O)[C@H](Cc4c[nH]c5ccccc45)NC(=O)[C@H](CCCC)NC(=O)[C@H](Cc4c[nH]c5ccccc45)NC(=O)[C@H](CCCCN)NC(=O)[C@H](CCC(N)=O)NC1=O)C(=O)N[C@@H](CC(=O)O)C(=O)N[C@@H](CO)C(=O)N[C@@H](CCCCN)C(=O)N[C@@H](CCCNC(=N)N)C(=O)N[C@@H](C)C(=O)N3)NC(=O)[C@H](CCCNC(=N)N)NC(=O)[C@H](CC(C)C)NC(=O)CNC(=O)[C@H](CCC(=O)O)NC2=O` [compound 852]: the concentration for half-maximal inhibition (IC50) was 0.182 µM.
